Test: Acidic stability (hydrolysis) of the O-2′,3′-ketal group
Assay type: physicochemical
Details: 1N aqueous HCl/MeCN 1:1 (v/v), RP-18 HPLC, calculated graphically; read-out: half-life under acidic conditions
Procedure: Both, the acidic hydrolysis of the O-2′,3′-ketal moiety of the ester 28a as well as the chitosanase-catalyzed degradation of chitosan foil-bound 5-fluorouridine was measured. Acidic stability was determined by incubating compound 28a (2 mg) in 1N aqueous HCl/MeCN 1:1 (v/v), neutralization by Et3N and subsequent RP-18 HPLC analysis as described above (FIG. 12).
The faster migrating zone contains always pure 5-fluorouridine, the slower migrating zone the residual ketal 28a. The half-life value was calculated graphically from a plot of the peak integral of both, the residual ketals and 5-fluorouridine vs. reaction time (FIG. 13). Upon acidic hydrolysis only the nucleoside and no 5-fluorouracil were formed.

CCOC(=O)CCC1(C)OC2C(O1)[C@@H](CO)O[C@H]2n1cc(F)c(=O)[nH]c1=O (stereo partly shown) [Compound 28a]
half-life: ~5 h

Reference: US9902752B2, “5-fluorouracil derivatives” (B. Braun Melsungen AG, priority 2012, dated 2018)
